According to ChEMBL document CHEMBL6182894, “Design, synthesis, and biological evaluation of quinolinyl-ureido-phenyl-hydrazide derivatives and quinolinyl-hydrazide derivatives as anticancer agents targeting Nur77-mediated ferroptosis” (Eur J Med Chem, 2025):
The source made the active and inactive calls. The calls are words filed in the database; no cut-off is given here.

Assays:
[1] = test system: T47D; experiment: Induction of ferroptosis in human T47D cells assessed as increase in malondialdehyde level at 1.5 to 4.5 uM incubated for 24 hrs by MDA assay; type: functional, cell-based; conditions: dose 1.5-4.5 µM
[2] = test system: MCF7; experiment: Induction of apoptosis in human MCF7 cells assessed as late apoptotic cells at 3 uM incubated for 24 hrs by Annexin V-FITC/PI staining based flow cytometry analysis (Rvb =0.86%); type: functional
[3] = test system: MCF7; experiment: Induction of ferroptosis in human MCF7 cells assessed as decrease in GPX4 expression at 3 uM incubated for 24 hrs in presence of fer-1 by Western blot analysis; type: functional, cell-based
[4] = test system: MCF7; experiment: Inhibition of colony formation in human MCF7 cells at 4.5 uM incubated for 3 days by crystal violet staining based analysis relative to control; type: functional; conditions: MCF7, 72 h, time 3 day
[5] = AUC (0 to infinity) in nude BALB/c mouse at 20 mg/kg, IG measured after 24 hrs; type: ADME, organism-based; conditions: in vivo, po
[6] = test system: MCF7; experiment: Antitumor activity against human MCF7 cells xenografted in nude BALB/c mouse assessed as tumor growth inhibition at 10 mg/kg/day, IG administered on alternative days for 21 days relative to control; type: functional; conditions: MCF7, po, 504 h, time 21 day, read-out: TGI
[7] = test system: T47D; experiment: cells; conditions: Homo sapiens, 24 h
Description: Antiproliferative activity against human T47D cells assessed as inhibition of cell growth incubated for 24 hrs by MTT assay

[8] = test system: MCF7; experiment: Induction of ferroptosis in Nur77 knockout human MCF7 cells assessed as […] incubated for 24 hrs by Western blot analysis; type: functional, cell-based
[9] = test system: MDA-MB-231; experiment: cells; conditions: Homo sapiens, MDA-MB-231, 24 h
Description: Antiproliferative activity against human MDA-MB-231 cells assessed as inhibition of cell growth incubated for 24 hrs by MTT assay

[10] = test system: MCF7; experiment: Antiproliferative activity against Nur77 knockout human MCF7 cells at 3 uM incubated for 24 hrs by EdU staining based analysis; type: functional, cell-based
[11] = Toxicity in nude BALB/c mouse xenografted with human MCF7 cells assessed as change in body weight at 10 to 20 mg/kg/day, IG administered on alternative days for 21 days; type: organism-based; conditions: in vivo, po, 504 h, dose 10-20 mg/kg/day, time 21 day
[12] = test system: MCF7; experiment: Antiproliferative activity against human MCF7 cells assessed as inhibition of cell growth at 50 uM by MTT assay relative to control; type: functional
[13] = test system: MCF7; experiment: Upregulation of Nur77 protein expression in human MCF7 cells at 3 uM measured at 2 to 10 hrs by Western blot assay; type: functional, cell-based; conditions: time 2-10 hrs
[14] = test system: MCF7; experiment: Induction of ferroptosis in Nur77 knockout human MCF7 cells assessed as accumulation of lipid peroxidation at 3 uM incubated for 24 hrs by BODIPYTM 581/591C11 probe based inverted fluorescence microscopic analysis; type: functional, cell-based
[15] = test system: MCF7; experiment: Cytotoxicity in Nur77 knockout human MCF7 cells at 1 to 3 uM incubated for 24 hrs by MTT assay; type: functional, cell-based; conditions: dose 1-3 µM
[16] = test system: HepG2; experiment: Induction of ferroptosis in human HepG2 cells assessed as decrease in GPX4 expression at 3 uM incubated for 24 hrs by Western blot analysis; type: functional, cell-based
[17] = test system: MCF7; experiment: Induction of apoptosis in human MCF7 cells assessed as necrotic cells at 6 uM incubated for 24 hrs by Annexin V-FITC/PI staining based flow cytometry analysis (Rvb =0.2%); type: functional
[18] = test system: MCF7; experiment: Antitumor activity against human MCF7 cells xenografted in nude BALB/c mouse assessed as tumor growth inhibition at 20 mg/kg/day, IG administered on alternative days for 21 days relative to control; type: functional; conditions: MCF7, po, 504 h, time 21 day, read-out: TGI
[19] = test system: MCF7; experiment: cells; conditions: Homo sapiens, MCF7, 24 h
Description: Antiproliferative activity against human MCF7 cells assessed as inhibition of cell growth incubated for 24 hrs by MTT assay

[20] = test system: MCF7; experiment: Induction of ferroptosis in human MCF7 cells assessed as effect on SLC7A11 expression at 3 uM incubated for 24 hrs in presence of fer-1 by Western blot analysis; type: functional, cell-based
[21] = test system: MCF7; experiment: Induction of apoptosis in human MCF7 cells assessed as necrotic cells at 3 uM incubated for 24 hrs by Annexin V-FITC/PI staining based flow cytometry analysis (Rvb =0.2%); type: functional
[22] = Half life in nude BALB/c mouse at 20 mg/kg, IG measured after 24 hrs; type: ADME, organism-based; conditions: in vivo, po
[23] = test system: MCF7; experiment: Induction of apoptosis in human MCF7 cells assessed as early apoptotic cells at 6 uM incubated for 24 hrs by Annexin V-FITC/PI staining based flow cytometry analysis (Rvb =0.82%); type: functional
[24] = test system: MCF7; experiment: Anticancer activity in human MCF7 cells assessed as reduction in cell viability at 3 uM in presence of fer-1 by MTT assay; type: functional, cell-based
[25] = test system: HepG2; experiment: Induction of ferroptosis in Nur77 knockout human HepG2 cells assessed as increase in GPX4 expression at 3 uM incubated for 24 hrs by Western blot analysis; type: functional, cell-based
[26] = Cytotoxicity in human MCF-10A cells assessed as inhibition of cell growth by MTT assay; type: toxicity, cell-based
[27] = Cytotoxicity in HaCaT cells assessed as inhibition of cell growth by MTT assay; type: toxicity, cell-based; conditions: human
[28] = Toxicity in nude BALB/c mouse xenografted with human MCF7 cells assessed as appearance of intact hepatic lobules with central veins and cords of radiating hepatocytes at 10 to 20 mg/kg/day, IG administered on alternative days for 21 days by H and E staining analysis; type: organism-based; conditions: in vivo, po, 504 h, dose 10-20 mg/kg/day, time 21 day
[29] = test system: MCF7; experiment: Upregulation of Nur77 protein expression in human MCF7 cells at 3 to 6 uM measured at 2 hrs by Western blot assay; type: functional, cell-based; conditions: dose 3-6 µM
[30] = Cmax in nude BALB/c mouse at 20 mg/kg, IG measured after 24 hrs; type: ADME, organism-based; conditions: in vivo, po
[31] = test system: MCF7; experiment: Induction of apoptosis in human MCF7 cells assessed as early apoptotic cells at 3 uM incubated for 24 hrs by Annexin V-FITC/PI staining based flow cytometry analysis (Rvb =0.82%); type: functional
[32] = test system: MCF7; experiment: Induction of ferroptosis in human MCF7 cells assessed as accumulation of lipid peroxidation at 3 uM incubated for 24 hrs by BODIPYTM 581/591C11 probe based inverted fluorescence microscopic analysis; type: functional, cell-based
[33] = test system: MCF7; experiment: Induction of apoptosis in human MCF7 cells assessed as late apoptotic cells at 6 uM incubated for 24 hrs by Annexin V-FITC/PI staining based flow cytometry analysis (Rvb =0.86%); type: functional
[34] = test system: MCF7; experiment: Induction of apoptosis in human MCF7 cells assessed as viable cells at 3 uM incubated for 24 hrs by Annexin V-FITC/PI staining based flow cytometry analysis (reference value: 98.1%); type: functional; conditions: read-out: Activity
[35] = test system: MCF7; experiment: Anticancer activity in human MCF7 cells assessed as cell viability at 3 uM in presence of DFO by MTT assay; type: functional, cell-based
[36] = test system: MCF7; experiment: Induction of ferroptosis in Nur77 knockout human MCF7 cells assessed as […] at 3 uM incubated for 24 hrs by BODIPYTM 581/591C11 probe based flow cytometry analysis; type: functional, cell-based
[37] = test system: MCF7; experiment: Induction of ferroptosis in human MCF7 cells assessed as increase in malondialdehyde level at 1.5 to 4.5 uM incubated for 24 hrs by MDA assay; type: functional, cell-based; conditions: dose 1.5-4.5 µM
[38] = test system: MCF7; experiment: Antitumor activity against human MCF7 cells xenografted in nude BALB/c mouse assessed as decrease in GPX4 level in tumor at 10 to 20 mg/kg/day, IG administered on alternative days for 21 days by immunohistochemical analysis; type: functional, organism-based; conditions: dose 10-20 mg/kg/day, time 21.0 day
[39] = test system: MCF7; experiment: Antitumor activity against human MCF7 cells xenografted in nude BALB/c mouse assessed as increase in Nur77 level in tumor at 10 to 20 mg/kg/day, IG administered on alternative days for 21 days by immunohistochemical analysis; type: functional, organism-based; conditions: dose 10-20 mg/kg/day, time 21.0 day
[40] = test system: HCT-116; experiment: Antiproliferative activity against human HCT-116 cells assessed as inhibition of cell growth by MTT assay
[41] = test system: MCF7; experiment: Induction of ROS production in human MCF7 cells at 3 uM incubated for 24 hrs by DCFH-DA staining based flow cytometric analysis; type: functional, cell-based
[42] = test system: BT-549; experiment: cells; conditions: Homo sapiens, BT-549, 24 h
Description: Antiproliferative activity against human BT-549 cells assessed as inhibition of cell growth incubated for 24 hrs by MTT assay

[43] = test system: HepG2; experiment: Antiproliferative activity against human HepG2 cells assessed as inhibition of cell growth by MTT assay
[44] = test system: MCF7; experiment: Induction of apoptosis in human MCF7 cells assessed as viable cells at 6 uM incubated for 24 hrs by Annexin V-FITC/PI staining based flow cytometry analysis (reference value: 98.1%); type: functional; conditions: read-out: Activity
[45] = test system: MCF7; experiment: Induction of ROS production in Nur77 knockout human MCF7 cells at 3 uM incubated for 24 hrs by DCFH-DA staining based flow cytometric analysis; type: functional, cell-based

- AUC(0-inf) [5]: 58.8 ng·h/mL
- IC50 [7]: 5.57 µM
- IC50 [9]: 3.14 µM
- IC50 [19]: 2.3 µM
- half-life [22]: 1.49 h
- Cmax [30]: 37.5 ng/mL
- IC50 [40]: 3.26 µM
- IC50 [42]: 3.93 µM
- IC50 [43]: 2.15 µM
Structure (SMILES): O=C(Nc1ccc(C(=O)N/N=C/c2cccc(Cl)c2)cc1)Nc1ccc2ncccc2c1
- Activity [1]: Active
- Activity [2]: 1.65%
- Activity [3]: Active
- inhibition at 4.5 µM [4]: 100%
- inhibition in vivo at 10 mg/kg/day [6]: 43.5%
- Activity [8]: Active
- Activity [10]: Active; Compound Showed Weak Activity Compared To Wild-Type Cells
- Activity [11]: Non-toxic
- inhibition at 50 µM [12]: 81%
- Activity [13]: inactive
- Activity [14]: inactive
- Activity [15]: Active; Compound Showed Weak Activity Compared To Wild-Type Cells
- Activity [16]: Active
- Activity [17]: 0.34%
- inhibition in vivo at 20 mg/kg/day [18]: 49%
- Activity [20]: Active
- Activity [21]: 0.27%
- Activity [23]: 1.29%
- Activity [24]: Active
- Activity [25]: Active
- IC50 [26]: > 50 µM
- IC50 [27]: > 50 µM
- Activity [28]: Non-toxic
- Activity [29]: Active
- Activity [31]: 0.8%
- Activity [32]: Active
- Activity [33]: 4.1%
- viability at 3 µM [34]: 97.3%
- Activity [35]: Active
- Activity [36]: Active
- Activity [37]: Active
- Activity [38]: Active
- Activity [39]: Active
- Activity [41]: Active
- viability at 6 µM [44]: 94.3%
- Activity [45]: inactive
